Experimental data taken from patent publication US20030124636A1, “Individualization of therapy with antiarrhythmics” (McGill University, priority 2001, published 2003).
Read-outs that look alike come from different tables or passages of the source. Marks after values point to notes of the source that are not given here.

Assays:
AAMU-Ab = assay: Competitive antigen ELISA, cross-reactivity of AAMU-Ab; assay type: binding, rabbit; conditions: 0 = absence of inhibition or inhibition no higher than 40% at highest concentration tested (5 × 10^−3 M)
Procedure: (§1) Buffers and water without additives are filtered through millipore filters and kept for 1 week. BSA, antibodies, Tween™ 20 and horse radish peroxidase conjugates are added to these buffers and water just prior to use. Urine samples are usually collected 4 hours after drinking a cup of coffee (instant or brewed with approximately 100 mg of caffeine per cup) and stored at −80° C. The urine samples are diluted 10 times with sodium phosphate buffer (620 mosm, pH 7.50) and are subsequently diluted with water to give concentrations of AAMU and 1X no higher than 3×10^−6 M in the ELISA. All the pipettings are done with an eight-channel pipette, except those of the antibody and sample solutions. Starting with the last well, 100 μL of a carbonate buffer (100 mM, pH 9.6) containing 2.5 μg mL^−1 antibodies are added to each well. After 90 min. at room temperature, the wells are washed three times with […] of TPB: isotonic sodium phosphate buffer (310 mosm, pH 7.50) containing 0.05% Tween™ 20.
(§2) After the initial wash, unoccupied sites are blocked by incubation for 90 min. at room temperature with 100 μL TBP containing 3% BSA. The wells are washed four times with 100 μL TPB. […] The microplate is gently shaken with an orbital shaker at room temperature for 3-4 hours. The wells are washed three times with 100 μL TPB containing 1% BSA and three times with water containing 0.05% Tween™20. To the washed plate is added 150 μL of a substrate buffer composed of citric acid (25 mM) and sodium phosphate dibasic buffer (50 mM, pH 5.0) containing 0.06% hydrogen peroxide and 0.04% o-phenylenediamine hydrochloride.
(§3) Buffers and water without additives were filtered through millipore filters and kept for 1 week. BSA, antibodies, Tween™20 and horse radish peroxidase conjugates were added to these buffers and water just prior to use. Urine samples were usually collected 4 hours after drinking a cup of coffee (instant or brewed with approximately 100 mg of caffeine per cup) and stored at −80° C. They were diluted 10 times with sodium phosphate buffer (620 mosm, pH 7.50) and were subsequently diluted with water to give concentrations of AAMU and 1X no higher than 3×10^−6 M in the ELISA. All the pipettings were done with an eight-channel pipette, except those of the antibody and sample solutions. Starting with the last well, 100 μL of a carbonate buffer (100 mM, pH 9.6) containing 2.5 μg mL^−1 antibodies was pipetted. After 90 min. at room temperature, the wells were washed three times with 100 μL of TPB: isotonic sodium phosphate buffer (310 mosm, pH 7.50) containing 0.05% Tween™ 20.
(§4) After the initial wash, unoccupied sites were blocked by incubation for 90 min. at room temperature with 100 μL TBP containing 3% BSA. The wells were washed four times with 100 μL TPB. […] The microplate was gently shaken with an orbital shaker at room temperature for 3-4 hours. The wells were washed three times with 100 μL with TPB containing 1% BSA and three times with water containing 0.05% Tween™ 20. To the washed plate was added 150 μL of a substrate buffer composed of citric acid (25 mM) and sodium phosphate dibasic buffer (50 mM, pH 5.0) containing 0.06% hydrogen peroxide and 0.04% o-phenylenediamine hydrochloride. After 20 min. at room temperature with shaking, the reaction was stopped with 50 μL of 2.5 N HCl.
(§5) The cross reactivities of AAMU-Ab and 1X-Ab were tested using a wide variety of caffeine metabolites and structural analogs (Table 2 below).

1X-Ab = assay: Competitive antigen ELISA, cross-reactivity of 1X-Ab; assay type: binding, rabbit; conditions: 0 = absence of inhibition or inhibition no higher than 40% at highest concentration tested (5 × 10^−3 M)
Procedure: as §1, §2, §3, §4, §5

[1] = cited from earlier work

| Compound | % Cross-Reaction AAMU-Ab (AAMU-Ab) | % Cross-Reaction 1X-Ab (1X-Ab) [%] | adverse reactions to dapsone ([1]; fast acetylators) [%] | adverse reactions to dapsone ([1]; slow acetylators) [%] |
| --- | --- | --- | --- | --- |
| Cn1c(=O)[nH]c(=O)c2[nH]cnc21 [3-Methyl Xanthine] | 0% | 0 | – | – |
| O=c1cc[nH]c(=O)[nH]1 [Uracil] | 0% | 0 | – | – |
| O=c1[nH]c(=O)c2[nH]c(=O)[nH]c2[nH]1 [Uric acid] | 0% | 0 | – | – |
| Cn1cnc2c1c(=O)[nH]c(=O)n2C [3,7-Dimethyl Xanthine (Theobromine), 3,7-Dimethyl Xanthine] | 0% | 0 | – | – |
| O=c1[nH]c(=O)c2[nH]cnc2[nH]1 [Xanthine] | 0^a % | 0 | – | – |
| CC(=O)Nc1c(N)n(C)c(=O)n(C)c1=O [5-Acetamino-6-amino-1,3-dimethyluracil] | 0% | 0 | – | – |
| O=c1[nH]cnc2nc[nH]c12 [Hypoxanthine] | 0% | 0 | – | – |
| Nc1nc2nc[nH]c2c(=O)[nH]1 [Guanine] | 0% | 0 | – | – |
| Cn1cnc2[nH]c(=O)[nH]c(=O)c21 [7-Methyl Xanthine] | 0% | 0 | – | – |
| CC(=O)Nc1c(N)n(C)c(=O)[nH]c1=O [5-Acetamino-6-amino-1-methyluracil] | 100% | 0 | – | – |
| Cn1c(=O)[nH]c2[nH]c(=O)[nH]c2c1=O [1-Methyluric acid] | 0% | 11 | – | – |
| Cc1nc2[nH]c(=O)[nH]c(=O)c2[nH]1 [8-Methyl Xanthine] | 0% | 0 | – | – |
| Cn1c(=O)[nH]c2nc[nH]c2c1=O [1-Methyl Xanthine (1X), 1-Methyl Xanthine] | 0% | 100 | – | – |
| Cn1c(=O)c2[nH]cnc2n(C)c1=O [1,3-Dimethyl Xanthine (Theophylline), 1,3-Dimethyl Xanthine] | 0% | 0.2 | – | – |
| Nc1ccc(S(=O)(=O)c2ccc(N)cc2)cc1 [dapsone] | – | – | 17 | 46 |
| Cn1c(=O)[nH]c2[nH]c(=O)n(C)c2c1=O [1,7-Dimethyluric acid] | 0% | 0 | – | – |
| Cn1c(=O)c2c(ncn2C)n(C)c1=O [1,3,7-Trimethyl Xanthine (Caffeine), 1,3,7-Trimethyl Xanthine] | 0% | 0 | – | – |
| CC(=O)Nc1c(N)[nH]c(=O)[nH]c1=O [5-Acetamino-6-amino-uracil] | 0.6% | 0 | – | – |
| Cn1c(=O)[nH]c2ncn(C)c2c1=O [1,7-Dimethyl Xanthine (Paraxanthine), 1,7-Dimethyl Xanthine] | 0% | 0.5 | – | – |
